Assay results from US4322496A, “Inhibition of lactate oxidase” (Eastman Kodak Company, priority 1980, dated 1982).
Like-named read-outs stand apart in the source and are kept apart here.

Key:
[1] = biological target: T1, L-Lactate Oxidase (Enterococcus casseliflavus, UniProt C9AC47); experiment: biochemical; conditions: for inhibition of the enzymatic activity of lactate oxidase: measured at 30° C.; for inhibition at 10000 µM: acid 10mM, read-out: LO % Inhibition
T1 sequence (C9AC47 1-367): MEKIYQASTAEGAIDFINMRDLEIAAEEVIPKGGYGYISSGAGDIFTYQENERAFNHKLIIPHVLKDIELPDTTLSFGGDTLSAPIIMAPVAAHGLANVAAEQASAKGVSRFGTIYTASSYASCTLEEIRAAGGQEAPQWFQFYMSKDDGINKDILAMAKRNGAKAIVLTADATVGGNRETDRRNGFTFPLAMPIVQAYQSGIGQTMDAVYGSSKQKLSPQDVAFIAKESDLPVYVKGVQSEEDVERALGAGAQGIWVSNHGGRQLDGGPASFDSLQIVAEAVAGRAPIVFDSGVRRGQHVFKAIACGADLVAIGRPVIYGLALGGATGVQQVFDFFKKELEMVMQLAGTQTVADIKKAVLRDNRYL
Protocol: (§1) In the examples, oxidative enzymes were prepared from Streptococcus faecium ATCC 12755. L-lactate oxidase was isolated from Streptococcus faecium as a 0-50% ammonium sulfate fraction as described in Esders et al., U.S. Pat. No. 4,166,763 issued Sept. 4, 1979. L-α-glycerophosphate oxidase was purified from Streptococcus faecium as described in Table V, of Research Disclosure Publication No. 16146 published Sept. 10, 1977.
In the examples, enzyme assays for lactate oxidase were carried out as follows: Assay reaction mixtures contained in a total volume of 1.0 ml: 100 μmoles potassium phosphate buffer, pH 7.0, 25 μmoles lactic acid, […] horseradish peroxidase (4.6 purpurogallin units), and 0.25 μmoles orthodianisidine. Compounds to be tested as potential inhibitors for lactate oxidase were added to the assay reaction mixtures as indicated in Example 1. Samples were equilibrated at 30° C. and then reactions were initiated by addition of Streptococcus faecium lactate oxidase. Absorbance at 430 nm was measured in a Beckman 25 spectrophotometer. Initial rates were calculated from the linear portion of the curve.

[2] = biological target: T2, lactate oxidase activity in partially purified L-α-glycerophosphate oxidase (Enterococcus casseliflavus, UniProt C9AC47); experiment: Lactate blank reaction in dry chemistry triglyceride test element; assay type: biochemical; conditions: for Response to Lactate (DR): partially purified α-GPO, 10 μl DL-lactate 20 mg/dl, 540 nm, 7 min, 37° C.
T2 sequence (C9AC47 1-367): T1 sequence (C9AC47 1-367)
Protocol: (§2) In the examples, non-fibrous, multilayer, "dry chemistry" analytical elements for determination of serum triglycerides were formulated having the following structure and composition: […]
(§3) The enzymatic reagent layer composition of the above-noted "dry chemistry" analytical element contained deionized gelatin (5.4 g/m^2); gel hardener (32.4 mg/m^2); poly(methyl acrylate-co-2-acrylamido-2-methylpropanesulfonic acid-co-2-acetoacetoxyethyl methacrylate) having a monomer weight ratio of (88.8:4.7:6.5) as peroxidase stabilizer (5.4 g/m^2); 0.05 M potassium phosphate buffer, pH 7.0; Triton X-100 surfactant (389 mg/m^2); 2-(3,5-dimethoxy-4-hydroxyphenyl)4,5-bis(4-dimethylaminophenyl)imidazole as a leuco dye (405 mg/m^2 dispersed in 2,4-di-n-amylphenol (4.05 g/m^2); antioxidant (324 mg/m^2); MgCl (103 mg/m^2); adenosinetriphosphate (1.35 g/m^2); peroxidase (7020 U/m^2); glycerol kinase (324 U/m^2); and either purified or partially purified L-α-glycerophosphate oxidase (2840 U/m^2). When the partially purified L-α-glycerophosphate oxidase was used, glycolate was incorporated into that layer in the amounts noted below in Example 2.
A. Dry Chemistry Test Element Mode: Dry chemistry analytical elements for the determination of triglycerides were prepared with either the purified or partially purified L-α-GPO as described above. To each element, a 10 μl sample of DL-lactate (20 mg/dl) was applied and the reflection density of the element, DR, at 540 nm was measured through the element support after a seven-minute incubation at 37° C.

[3] = biological target: T3, beef meat lactate dehydrogenase (Bos taurus, UniProt P19858); experiment: LDH assay reaction mixture (pyruvate/NADH); assay type: biochemical; conditions: acid 10 mM; pH 7.5
T3 construct: beef meat lactate dehydrogenase; from tissue; host or cells: beef meat (skeletal muscle)
Protocol: The effect of these acids on LO was evaluated by studying an LO assay reaction mixture having the composition described above. The effect of these acids on LDH was evaluated by studying an LDH assay reaction mixture which contained in a total volume of 1.0 ml: 50 μmoles potassium phosphate buffer (pH 7.5); 1 μmole sodium pyruvate; 0.13 μmole NADH; 0.02 μg beef meat lactate dehydrogenase (320 U/mg) and the acid at a concentration of 10 mM. In the absence of acid, the rate of reaction was assumed to be 100% and the percent inhibition of each reaction was calculated accordingly.

[4] = biological target: T4, L-α-Glycerophosphate Oxidase (Enterococcus casseliflavus, UniProt O86963); experiment: L-α-glycerophosphate oxidase enzyme assay (absorbance at 430 nm); assay type: biochemical; conditions: for inhibition at 5000 µM: compound at 5 mM, 37° C., pH 7.0, read-out: L-α-Glycerophosphate Oxidase Percent Inhibition
T4 construct: L-α-glycerophosphate oxidase was purified from Streptococcus faecium; made in house; host or cells: Streptococcus faecium ATCC 12755 (native organism, not recombinant)
T4 sequence (O86963 1-609): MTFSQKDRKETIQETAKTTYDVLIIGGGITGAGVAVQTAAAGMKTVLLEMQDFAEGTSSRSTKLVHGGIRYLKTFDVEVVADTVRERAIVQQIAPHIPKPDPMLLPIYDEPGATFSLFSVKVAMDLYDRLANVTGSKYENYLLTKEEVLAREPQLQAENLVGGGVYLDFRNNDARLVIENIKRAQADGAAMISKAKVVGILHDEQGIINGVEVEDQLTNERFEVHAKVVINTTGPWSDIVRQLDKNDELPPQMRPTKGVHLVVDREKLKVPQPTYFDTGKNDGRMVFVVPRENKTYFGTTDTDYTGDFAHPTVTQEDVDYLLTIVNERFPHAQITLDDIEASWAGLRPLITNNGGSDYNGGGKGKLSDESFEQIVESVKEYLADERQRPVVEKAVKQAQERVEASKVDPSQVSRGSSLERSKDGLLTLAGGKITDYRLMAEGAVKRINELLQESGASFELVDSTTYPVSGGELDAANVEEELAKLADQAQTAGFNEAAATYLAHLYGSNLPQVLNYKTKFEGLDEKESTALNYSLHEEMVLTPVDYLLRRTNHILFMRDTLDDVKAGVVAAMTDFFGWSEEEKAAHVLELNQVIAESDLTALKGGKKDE
Protocol: as §1, with “1977. Extensively purified L-α-glycerophosphate oxidase (material carried through the whole purification sequence) contained L-α-glycerophosphate:lactate oxidase activity ratios of (1700-3000:1), whereas the partially purified L-α-glycerophosphate oxidase (material isolated as the 50-80% ammonium sulfate fraction) contained L-α-glycerophosphate:lactate oxidase activity ratios of 30-100:1.” for “1977.”
In the examples, enzyme assays for L-α-glycerophosphate oxidase were carried out as follows: Assay reaction mixtures contained in a total volume of 1.0 ml: 100 μmoles potassium phosphate buffer, pH 7.0, 66 μg orthodianisidine, 25 μg horseradish peroxidase (4.6 purpuragallin units) and 200 μmoles DL-α-glycerophosphate (at pH 7.0). Compounds to be tested as potential inhibitors were added to the reaction mixtures as indicated in Example 1. Samples were equilibrated at 37° C. and the reactions were initiated by the addition of an aliquot of enzyme. Absorbance at 430 nm was measured in a Beckman 25 spectrophotometer. Initial rates were calculated from the linear portion of the curve.

[5] = test system: components of the triglyceride detection system; experiment: Response of dry chemistry triglyceride test elements to test fluids; conditions: 81 or 405 mg/m^2 glycolate in element
Protocol: as §2
as §3, with “When the partially purified L-α-glycerophosphate oxidase was used, glycolate was incorporated into that layer in the amounts noted below in Example 2.” left out
Dry chemistry analytical elements (as described above) containing purified L-α-glycerophosphate oxidase and partially purified enzyme plus two different levels of glycolate were compared for response to serum triglycerides and glycerol. […] After a sevenminute incubation at 37° C., the reflection density, DR, at 540 nm was measured through the element support. […]

[6] = biological target: T5, lactate oxidase activity in partially purified DL-α-glycerophosphate oxidase (Enterococcus casseliflavus, UniProt C9AC47); experiment: Lactate/serum blank reaction, solution mode; assay type: biochemical; conditions: 10 min, 37° C.; for Response to Normal Serum ΔA490: 20 μl normal serum
T5 sequence (C9AC47 1-367): T1 sequence (C9AC47 1-367)
Protocol: Solution incubation mixtures contained in a total volume of 1.0 ml: 100 μmoles potassium phosphate buffer, pH 7.0, 0.12 mg 4-aminoantipyrene.HCl, 0.04 mg 1,7-dihydroxynaphthalene, 25 μg horseradish peroxidase (4.6 purpurogallin units), 0.36 units glycerol kinase, 4.6 units partially purified DL-α-glycerophosphate oxidase, and 10 mg Triton X-100. Reactions were initiated by addition of 20 μl of normal serum or 50 μl of 1 mM Dl-lactate, and after ten minutes at 37° C., the absorbance was measured at 490 nm. In each case, a reagent blank (all components except substrate) was subtracted to give the change in absorbance at 490 nm, ΔA490.

[7] = compound at 5 mM, 30° C., pH 7.0, rate without compound = 100%, read-out: L-Lactate Oxidase Percent Inhibition
[8] = pH 7, read-out: L-Lactate Oxidase Percent Inhibition

SMILES	inhibition at 5000 µM [1, 7] [%]	inhibition of the enzymatic activity of lactate oxidase [1] [%]	inhibition of lactate oxidase activity (in words) [1]	other results
NCC(=O)O [Glycine]	–	–	little or no inhibition	inhibition at 5000 µM [1, 8]: 0%
O=CC(=O)O [Glyoxalic Acid]	100	–	inhibited the enzyme	inhibition at 10000 µM [1]: 100%; inhibition at 10000 µM [3]: 15%; inhibition of L-α-GPO (in words) [4]: inhibited L-α-GPO as well; inhibition at 5000 µM [4]: 100%
COCC(=O)O [Methoxyacetic Acid]	–	–	little or no inhibition	inhibition at 5000 µM [1, 8]: 0%
O=C(O)C(=O)O [Oxalic Acid]	94	–	greatly inhibit	inhibition at 10000 µM [1]: 94%; inhibition at 10000 µM [3]: 100%; inhibition of L-α-GPO (in words) [4]: do not inhibit; inhibition at 5000 µM [4]: 0%
NC(=O)C(=O)O [Oxamic Acid]	40	< 50	–	–
NC(=O)C(N)=O [Oxamide]	43	< 50	–	–
O=C(O)C(O)C(=O)O [Tartronic Acid]	10	–	–	–
O=C(O)CCC(=O)C(=O)O [α-Ketoglutaric Acid]	–	–	little or no inhibition	inhibition at 5000 µM [1, 8]: 0%

More lines, main results first:

inhibition at 5000 µM [1, 7] [%]	inhibition of the enzymatic activity of lactate oxidase [1] [%]	inhibition of lactate oxidase activity (in words) [1]	SMILES	other results
21	< 50	–	O=C(O)C(O)CO (racemic) [Glyceric Acid]	–
90	–	greatly inhibit	O=C(O)CO [Glycolic Acid]	lactate blank relative to control (purified α-GPO) ([2]; 81 mg/m^2 glycolic acid): 1.6 times control; Response to Lactate (DR) ([2]; 81 mg/m^2 glycolic acid): 0.04; reaction with lactate compared with control (purified α-GPO) ([2]; 405 mg/m^2 glycolic acid): less than that observed with the purified L-α-glycerophosphate oxidase; Response to Lactate (DR) ([2]; 405 mg/m^2 glycolic acid): 0.01; inhibition at 10000 µM [1]: 90%; inhibition at 10000 µM [3]: 11%; inhibition of L-α-GPO (in words) [4]: do not inhibit; inhibition at 5000 µM [4]: 0%; inhibition of the components of the triglyceride detection system (in words) [5]: did not inhibit any of the components of the triglyceride detection system; Response to Normal Serum ΔA490 ([6]; glycolate 1 mM): 0.006; Response to 50 μM DL-Lactate ΔA490 ([6]; glycolate 1 mM): 0.008; Response to Normal Serum ΔA490 ([6]; glycolate 2 mM): 0; Response to 50 μM DL-Lactate ΔA490 ([6]; glycolate 2 mM): 0; Response to Normal Serum ΔA490 ([6]; glycolate 3 mM): 0; Response to 50 μM DL-Lactate ΔA490 ([6]; glycolate 3 mM): 0
0	–	little or no inhibition	CC(O)C(N)=O (stereo not shown) [Lactamide]	–
0	–	little or no inhibition	O=C(O)CC(O)C(=O)O (stereo not shown) [Malic Acid]	–
30	< 50	–	O=C(O)CC(=O)O [Malonic Acid]	–
7	< 50	–	CCC(O)C(=O)O (stereo not drawn) [α-Hydroxybutyric Acid]	–
0	–	little or no inhibition	CC(O)CC(=O)O (stereo not drawn) [β-Hydroxybutyric Acid]	–
